Read-outs that look alike come from different tables or passages of the source.
Assays:
[1] = Concentration in plasma, bile and organs after s.c. administration in rats; format: in vivo; conditions: rat; for concentration at 24 h: female, Wistar, sc
Experimental: (§1) Female wistar rats, 240-300 g body weight (Charles River-Wiga, Sulzfeld), were treated with the active ingredient WX-UK1 in the form of an aqueous solution or with the liposomal formulations 1-4 described in Example 1. The animals each received 1 dose/day over a period of 10 days. The administrations took place in the region of the flank (between shoulder and rear limbs) so that the animals were unable to reach the injection site with their paws. The injection sites were approx. 1 cm apart, no site being injected more than once. The first five injections took place on the left side, and the second five injections on the right side. The dose was usually 3 mg of active ingredient/kg of body weight, i.e. 0.9 mg of active ingredient was administered for an average body weight of 300 g. Radiolabeled active ingredient (3H-WX-UK1) was administered in some cases.
(§2) 24 h after the last injection, the animals were anaesthetized (ethylurethane, 1.4 g/kg i.p.), and citrated blood was obtained from the retroorbital venous plexus; citrated plasma was obtained by centrifugation at 1200×g for 10 min. The bile duct was then dissected, and bile was obtained for 15 min. Subsequently, the areas of skin at the injection sites were examined and the growth findings on dissection were recorded.
The animals were then sacrificed, and various organs (heart, kidney, liver, spleen) were dissected. The active ingredient content in the plasma, bile and organs was determined by HPLC [standard method using Nucleosil 7 C18 columns (Macherey-Nagel, Düren), acetonitrile/water/perchloric acid 30/70/0.04, 1 ml/min] after prepurification using Chromabond C18 solid-phase extraction columns (Macherey-Nagel, Duren). When ^3H-WX-UK1 was used, the active ingredient concentration was determined immediately after lyophilization of the samples by measuring the radioactivity in a liquid scintillation counter.

[2] = Tolerability of s.c. administration in rats (behavior, palpation, dissection, histology scores); format: in vivo; set-up: key to Behavior of the animals (score): 0: normal; slight scratching in 1st hour; 2: scratching and signs of pain; 3: still marked impairment after 2 h; key to Palpation consecutive (score): 0: unremarkable; 1: slight, isolated thickenings/indurations; 2: persistent thickenings/indurations, coalescing; 3: additional lesions, inflammations; conditions: rat
Experimental: as §1
The animals were weighed before each injection and observed for 2 h after each injection, and before each further injection the previous injection sites were palpated. The behavior of the animals and the palpation findings were recorded.
The following score was used to evaluate the observed impairments:
Behavior of the animals after the injection (2 h)
Consecutive Palpation Findings
as §2
The following score was used to evaluate the growth changes observed:
Final Observations, Growth Findings during Dissection
Skin samples were dissected from the regions of the injections, fixed in formalin and examined histologically (hematoxylin/eosin stain). The following score was used to evaluate the histologically visible changes: […]

[3] = s.c. 3 mg/kg 1 dose/day 10 days, 24 h after last injection, single experiment, listed as Control, 3 mg/kg

CCOC(=O)N1CCN(C(=O)[C@H](Cc2cccc(C(=N)N)c2)NS(=O)(=O)c2c(C(C)C)cc(C(C)C)cc2C(C)C)CC1 [WX-UK1, Nα-(2,4,6-triisopropylphenylsulfonyl)-3-amidino-(L)-phenylalanine 4-ethoxycarbonylpiperazide]
concentration at 24 h ([1]; bile, 3 mg/kg, s.c. 3 mg/kg 1 dose/day 10 days, 24 h after last injection, single experiment, read-out: Concentration Bile): 3100 ng/mL
concentration at 24 h ([1]; heart, 3 mg/kg, s.c. 3 mg/kg 1 dose/day 10 days, 24 h after last injection, single experiment, read-out: Organ content Heart): 840 ng/g
concentration at 24 h ([1]; kidney, 3 mg/kg, s.c. 3 mg/kg 1 dose/day 10 days, 24 h after last injection, single experiment, read-out: Organ content Kidney): 2300 ng/g
concentration at 24 h ([1]; liver, 3 mg/kg, s.c. 3 mg/kg 1 dose/day 10 days, 24 h after last injection, single experiment, read-out: Organ content Liver): 180 ng/g
concentration at 24 h ([1]; plasma, 3 mg/kg, s.c. 3 mg/kg 1 dose/day 10 days, 24 h after last injection, single experiment, read-out: Concentration Plasma): < 50 ng/mL
concentration at 24 h ([1]; spleen, 3 mg/kg, s.c. 3 mg/kg 1 dose/day 10 days, 24 h after last injection, single experiment, read-out: Organ content Spleen): 690 ng/g
Organ content Heart [1, 3]: 1.0 µg/g
Organ content Kidney [1, 3]: 2.5 µg/g
Organ content Liver [1, 3]: 0.36 µg/g
Organ content Spleen [1, 3]: 0.65 µg/g
Concentration in the plasma ([1]; s.c., determined only by using 3H-WX-UK1): < 100 ng/mL
Behavior of the animals (score) ([2]; 2 h after s.c. injection): 1
Impression final (score, findings during dissection) ([2]; 24 h after last injection): 2.5
Skin histology (FIG. 1, FIG. 3, magnification 25x) ([2]; after s.c. administration): strong inflammatory reaction
Palpation consecutive (score) ([2]; previous s.c. injection sites): 1
Score (total impairment), Mean ([2]; s.c., mean of the two experiments): Mean = 7.5
Score (total impairment of the animals) ([2]; s.c., sum of the part scores): 7.5
